Laboratory results as given in patent US8637237B2, “Methods, compositions, and systems for the identification of species-specific or developmental stage-specific insecticides” (The University of North Carolina at Greensboro, priority 2003, dated 2014).

Molecular target: T1, FXR (Rattus norvegicus, UniProt Q62735)
T1 sequence (Q62735 1-469): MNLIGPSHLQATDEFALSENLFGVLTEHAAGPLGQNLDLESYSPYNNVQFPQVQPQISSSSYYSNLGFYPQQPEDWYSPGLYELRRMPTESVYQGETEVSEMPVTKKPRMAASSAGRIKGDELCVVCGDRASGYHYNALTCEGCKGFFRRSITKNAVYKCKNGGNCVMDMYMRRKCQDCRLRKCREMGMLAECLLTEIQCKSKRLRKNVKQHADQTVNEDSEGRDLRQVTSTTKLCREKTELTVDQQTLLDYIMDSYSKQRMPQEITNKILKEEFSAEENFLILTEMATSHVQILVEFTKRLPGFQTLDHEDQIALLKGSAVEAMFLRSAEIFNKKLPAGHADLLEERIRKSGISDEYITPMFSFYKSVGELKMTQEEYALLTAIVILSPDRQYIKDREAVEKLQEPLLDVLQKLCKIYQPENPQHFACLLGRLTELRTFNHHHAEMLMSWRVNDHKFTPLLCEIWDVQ
T1 sequence (P28700 1-467 partner): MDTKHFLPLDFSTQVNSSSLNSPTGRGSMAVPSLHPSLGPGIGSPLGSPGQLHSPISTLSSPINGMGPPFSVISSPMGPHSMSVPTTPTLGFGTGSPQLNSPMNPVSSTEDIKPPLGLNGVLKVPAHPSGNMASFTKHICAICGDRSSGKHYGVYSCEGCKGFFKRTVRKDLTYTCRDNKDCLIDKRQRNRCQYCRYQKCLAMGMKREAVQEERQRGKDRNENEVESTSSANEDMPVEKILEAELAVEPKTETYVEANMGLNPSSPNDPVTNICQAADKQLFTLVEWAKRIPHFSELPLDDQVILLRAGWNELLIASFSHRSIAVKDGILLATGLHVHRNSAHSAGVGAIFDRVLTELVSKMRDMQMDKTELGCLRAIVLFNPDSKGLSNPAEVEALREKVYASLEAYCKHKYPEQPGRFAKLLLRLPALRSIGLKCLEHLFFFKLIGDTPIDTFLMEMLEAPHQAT
Experiment: cell-based
Conditions: for FXR-dependent transcription, induction: 7.5 μM
Protocol: These experiments employed a mammalian cell culture system using Chinese hamster ovary cells (CHO) to evaluate the transcriptional function of Drosophila melanogaster EcR and USP using methods described previously (U.S. Patent Application Publication No: 2005/0049230; Henrich et al, 2003). Cells were seeded in 6-well polypropylene culture plates (Falcon) with 10^5 cells per well on the day prior to transfection. Transfection was subsequently performed using either calcium phosphate (Kitareewan et al., 1996, Mol. Biol. Cell, 7:1153-1196) or a GenePorter reagent (Gene Therapy Systems, Inc; San Diego, Calif.) following manufacturer's protocols. Each well received 1.25 μg of (EcRE)5-ΔMTV-CAT (five copies of the hsp27 EcRE inserted into an mouse mammary tumor virus (MTV) promoter upstream of the chloramphenicol acetyltransferase (CAT) gene) or (EcRE)5-ΔMTV-LUC (the same promoter attached to firefly luciferase), 1.25 μg of pCH111 (SV40 early promoter linked to the β-galactosidase gene) to normalize CAT activity, and 0.25 μg of each expression plasmid (EcR, FXR, RXR, USP) that was tested. The cells were incubated with plasmid DNA for seven hours and then washed with 1×PBS. Muristerone A (murA; Alexis Biochemicals) or 20-hydroxyecdysone (20E; Sigma) dissolved in ethanol to a concentration of 10 mM was diluted as necessary to the final assay concentration (FAC) in 2 ml of fresh incubation medium that was then applied to the cells. Similarly, JHIII (Sigma) was dissolved in dimethyl sulfoxide (DMSO) to a concentration of […] and diluted into the incubation medium to its final assay concentration (20, 40, 80, 160 μM). […] A corresponding volume of ethanol and DMSO were added to control cells for all experiments. For all experiments, the cells were allowed to incubate with the medium for 24 hours before collection and cell lysates were prepared by described methods (Kitareewan et al., 1996). Both β-galactosidase and CAT reporter activity were measured based on previously used methods (Kitareewan et al, 1996). Luciferase assays using luciferrin followed the specifications of the manufacturer.
Transcriptional activity, measured as ^14C-chloramphenicol counts (for measuring CAT activity) or relative luciferase activity (RLU) was quantified for each cell lysate. The counts were then normalized by adjusting for differences in β-galactosidase activity, since β-galactosidase expression is controlled by a constitutive promoter and provides an estimate of cell mass. Data were normalized as fold-induction based on differences in reporter gene activity between hormonally treated and control cells.
In these experiments, candidate juvenoids were tested for their ability to activate FXR mediated transcription by transfecting Chinese hamster ovary (CHO) cells using the FXR plasmid, mouse RXRα, and the ΔMTV-(EcRE)5-CAT reporter as described herein. An RXR-dependent CRBPII-CAT reporter plasmid was employed in parallel assays to discern activators specific for this receptor.

[1] = dose 20 μM, 1 = no increase over vehicle

5,11-dimethyltetrahydrochrysene
FXR-dependent activity, induction (dose not stated): activated

CCCCCc1cc(O)c2c(c1)OC(C)(C)[C@@H]1CC=C(C)C[C@@H]21 (single isomer, unassigned) [Δ^8-isomer]
FXR-dependent CAT activity, induction (15 μM): not

CC12CCC(CC1)C(C)(C)O2 [1,8-cineole]
FXR-dependent activity, induction (800 μM): two-fold
FXR ACTIVITY (fold-induction) (dose 400 μM): 2 fold-induction

OCCc1ccccc1O [2-hydroxyphenethyl alcohol, 2-hydroxyphenethlyl alcohol]
FXR-dependent activity, induction (400 μM): 3 fold

C=C(C)CCc1cc(OC)c(OC)cc1O [3,4-dimethoxy-6-isopentenylphenol]
FXR-dependent activity, induction (100 μM): 3 fold

OCCc1cccc(O)c1 [3-hydroxyphenethyl alcohol, 3-hydroxyphenethlyl alcohol]
FXR-dependent activity, induction (400 μM): 3 fold

OCCc1ccc(O)cc1 [4-hydroxyphenethyl alcohol, 4-hydroxyphenethlyl alcohol]
FXR-dependent activity, induction (400 μM): 3 fold

COc1cc2ccc(=O)oc2cc1O [7-hydroxy-6-methoxycoumarin]
FXR-dependent activity, induction (1 mM): ineffectiveness

CC(C)CCC[C@@H](C)[C@H]1CC[C@H]2[C@@H]3C(=O)C=C4C[C@@H](O)CC[C@]4(C)[C@H]3CC[C@]12C [7-ketocholesterol]
FXR-dependent transcription, induction: not

COc1ccc2ccc(=O)oc2c1 [7-methoxycoumarin]
FXR-dependent activity, induction (1 mM): 10 fold

CC(C)CCC[C@@H](C)[C@H]1CC[C@H]2[C@@H]3[C@H](O)C=C4C[C@@H](O)CC[C@]4(C)[C@H]3CC[C@]12C [7α-hydroxycholesterol]
FXR-dependent transcription, induction: not

Nc1ncnc2c1nc(Br)n2[C@@H]1O[C@@H]2COP(=O)(O)O[C@H]2[C@H]1O [8-Br-cAMP]
FXR-dependent activity, induction (1 mM): 4 fold

COc1c2occc2cc2ccc(=O)oc12 [8-methoxypsoralen]
FXR-dependent CAT activity, induction (50 μM): inactive

CC(C)=CCc1c(O)cc(O)c2c1O[C@H](c1ccc(O)cc1)CC2=O [8-prenylnaringenin]
FXR-dependent CAT activity, induction (20 μM): 38 fold
FXR ACTIVITY (fold-induction) [1]: 38 fold-induction

CC(C)CCC[C@](C)(O)[C@H]1CC[C@H]2[C@@H]3CC=C4C[C@@H](O)CC[C@]4(C)[C@H]3CC[C@@]21C [20α-hydroxycholesterol]
FXR-dependent transcription, induction: 10 fold

CC(C)CC[C@H](O)[C@@H](C)[C@H]1CC[C@H]2[C@@H]3CC=C4C[C@@H](O)CC[C@]4(C)[C@H]3CC[C@]12C [22S-hydroxycholesterol]
FXR-dependent transcription, induction: not

COc1cc(O)c(CC=C(C)C)c2c1C(=O)CC(c1ccc(O)cc1)O2 (stereo not shown) [Isoxanthohumol]
FXR-dependent CAT activity, induction (20 μM): 9 fold
FXR ACTIVITY (fold-induction) [1]: 9 fold-induction

CC(C)=CCC1=C(O)C(C(=O)CC(C)C)=C(O)C(CC=C(C)C)(CC=C(C)C)C1=O [Lupulone]
FXR-dependent CAT activity, induction (20 μM): inert
FXR ACTIVITY (fold-induction) [1]: 1 fold-induction

CC1=C[C@H]2[C@@]3(O)[C@H](C)[C@@H](O)[C@]4(O)[C@H]([C@@H]3C=C(CO)C[C@]2(O)C1=O)C4(C)C [Phorbol]
FXR-dependent activity, induction (dose not stated): inactive

CCCCCc1cc(O)c2c(c1)OC(C)(C)[C@@H]1CCC(C)=C[C@@H]21 [THC, 1-trans-Δ^9-tetrahydrocannabinol]
FXR-dependent CAT activity, induction (15 μM): 5 fold

COC1=C(OC)C(=O)C(CC=C(C)C)=C(C)C1=O [U1, Ubiquinone-1]
inhibition of farnesol-induced FXR-dependent activity (10 μM): completely inhibited

COC1=C(OC)C(=O)C(C/C=C(\C)CC/C=C(\C)CCC=C(C)C)=C(C)C1=O [U3]
FXR-dependent activity, induction (dose not stated): 5 fold

COC1=C(OC)C(=O)C(C/C=C(\C)CC/C=C(\C)CC/C=C(\C)CCC=C(C)C)=C(C)C1=O [U4]
FXR-dependent activity, induction (dose not stated): 3 fold

COC1=C(OC)C(=O)C(C/C=C(\C)CC/C=C(\C)CC/C=C(\C)CC/C=C(\C)CC/C=C(\C)CCC=C(C)C)=C(C)C1=O [U6]
FXR-dependent activity, induction (dose not stated): inactive

COC1=C(OC)C(=O)C(C/C=C(\C)CC/C=C(\C)CC/C=C(\C)CC/C=C(\C)CC/C=C(\C)CC/C=C(\C)CC/C=C(\C)CCC=C(C)C)=C(C)C1=O [U8]
FXR-dependent activity, induction (dose not stated): inactive

COC1=C(OC)C(=O)C(C/C=C(\C)CC/C=C(\C)CC/C=C(\C)CC/C=C(\C)CC/C=C(\C)CC/C=C(\C)CC/C=C(\C)CC/C=C(\C)CCC=C(C)C)=C(C)C1=O [U9]
FXR-dependent activity, induction (dose not stated): inactive

COC1=C(OC)C(=O)C(C/C=C(\C)CC/C=C(\C)CC/C=C(\C)CC/C=C(\C)CC/C=C(\C)CC/C=C(\C)CC/C=C(\C)CC/C=C(\C)CC/C=C(\C)CCC=C(C)C)=C(C)C1=O [U10]
FXR-dependent activity, induction (dose not stated): inactive

COc1cc(O)c(CC=C(C)C)c(O)c1C(=O)/C=C/c1ccc(O)cc1 [Xanthohumol]
FXR ACTIVITY (fold-induction) (dose not given, 1 = no increase over vehicle): 1 fold-induction
FXR-dependent activity, induction (dose not stated): not activated

CCOC(=O)C=C(C)CCCC(C)(Cl)CCCC(C)(C)Cl (stereo not shown) [ZR232, ethyl ester of 7,11-dichloro-2-ene farnesoic acid]
FXR-dependent CAT activity, induction (50 μM): 5 fold

Nc1ncnc2nc[nH]c12 [adenine]
FXR-dependent activity, induction (dose not stated): ineffective

C=CCc1cc(OC)c2c(c1OC)OCO2 [apiole]
FXR-dependent CAT activity, induction (250 μM): 4 fold

CC(C)=CCC/C(C)=C/COc1c2ccoc2cc2oc(=O)ccc12 [bergamotin]
FXR-dependent activity, induction (25 μM): 8 fold
FXR ACTIVITY (fold-induction) (dose 25 μM): 10 fold-induction

C=CCC1=C(C)C(OC(=O)[C@@H]2[C@@H](C=C(C)C)C2(C)C)CC1=O (stereo partly shown) [bioallethrin]
FXR-dependent activity, induction (25 μM): 14 fold

C[C@@]12CCc3occc3[C@H]1CC[C@@]13C[C@@H](CC[C@H]12)[C@@](O)(CO)C3 [cafestol]
FXR ACTIVITY (fold-induction) [1]: 12 fold-induction

O=C(O)/C=C/c1ccc(O)c(O)c1 [caffeic acid]
FXR-dependent CAT activity, induction (250 μM): inactive
FXR ACTIVITY (fold-induction) (dose 100 μM, 1 = no increase over vehicle): 1 fold-induction

CCCCCc1cc(O)c2c(c1)OC(C)(C)c1ccc(C)cc1-2 [cannabinol]
FXR-dependent CAT activity, induction (15 μM): not

CNC(=O)Oc1cccc2ccccc12 [carbaryl]
FXR-dependent activity, induction (dose not stated): inactive

ClC1=C(Cl)C2(Cl)C3C(Cl)C(Cl)CC3C1(Cl)C2(Cl)Cl (stereo not shown) [chlordane]
FXR-dependent CAT activity, induction (5 μM): 7 fold
FXR ACTIVITY (fold-induction) (dose 5 μM): 7 fold-induction

CCOCn1c(-c2ccc(Cl)cc2)c(C#N)c(Br)c1C(F)(F)F [chlorfenapyr]
FXR-dependent activity, induction (25 μM): 10 fold

CC(C)(O)/C=C/C(=O)[C@](C)(O)[C@H]1[C@H](O)C[C@@]2(C)[C@@H]3CC=C4[C@@H](C[C@H](O)C(=O)C4(C)C)[C@]3(C)C(=O)C[C@]12C [cucurbitacin D]
suppression of FXR-dependent activity promoted by CDCA (1 μM cucurbitacin D, 40 μM CDCA): 58 fold
suppression of FXR-dependent activity promoted by JH III (1 μM cucurbitacin D, 40 μM JH III): 7 fold
